Molecular target: bovine serum albumin (Bos taurus, UniProt P02769)
Experiment: HF field effect 1 to 170 MHz on separation of phenylacetic acid from BSA solution in dialysis module (HPLC)
Format: in vitro ADME
Conditions: BSA 60 mg/ml, 1 mmol/l toxin
Experimental: Examination of the HF field effect in the frequency range 1 to 170 MHz.
The HF field was varied in subbands of 10 MHz in the frequency range 1-170 MHz and was compared with a control experiment without an HF field.
The quantitative determination of the phenylacetic acid was performed using HPLC.
The results of the experiments are collected in FIG. 4. […] The effect was particularly pronounced at 54.6% in the subband from 110 to 120 MHz.

Chain of bovine serum albumin (P02769 25-607): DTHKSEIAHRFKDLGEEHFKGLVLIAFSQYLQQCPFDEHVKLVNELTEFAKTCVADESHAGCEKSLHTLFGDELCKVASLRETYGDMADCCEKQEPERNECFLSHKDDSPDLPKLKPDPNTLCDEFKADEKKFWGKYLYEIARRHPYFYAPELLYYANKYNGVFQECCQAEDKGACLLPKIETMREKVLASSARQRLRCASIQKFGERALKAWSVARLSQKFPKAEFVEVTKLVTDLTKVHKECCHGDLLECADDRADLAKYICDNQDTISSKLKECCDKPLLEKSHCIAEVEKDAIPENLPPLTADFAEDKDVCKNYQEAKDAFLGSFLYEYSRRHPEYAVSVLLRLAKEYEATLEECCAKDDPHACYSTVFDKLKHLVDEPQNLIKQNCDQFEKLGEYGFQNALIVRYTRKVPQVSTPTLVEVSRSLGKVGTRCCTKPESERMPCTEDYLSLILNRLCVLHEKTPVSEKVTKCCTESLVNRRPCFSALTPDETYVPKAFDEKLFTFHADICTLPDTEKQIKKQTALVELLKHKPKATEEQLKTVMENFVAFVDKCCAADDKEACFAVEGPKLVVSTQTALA

O=C(O)Cc1ccccc1 [phenylacetic acid]
increase of separation rate under the influence of the HF field (HF field 1-170 MHz in subbands of 10 MHz vs control without HF field): at least 45.3%
increase of separation rate under the influence of the HF field (subband from 110 to 120 MHz vs control without HF field): 54.6%

Source: US10172994B2, “Hemodiafiltration method” (Fresenius Medical Care Deutschland GmbH, priority 2012, dated 2019)
